Source: patent publication US6288091A, “Antiherpes virus compounds and methods for their preparation and use” (Boehringer Ingelheim Ltd., priority 1999, dated 2001)
Read-outs that look alike come from different tables or passages of the source.

Key:
[1] = tested on: HCMV (strain AD169); test: Inhibition of HCMV replication, ELISA assay (Hs-68 cells); assay type: cell-based, Human Cytomegalovirus (HCMV); details: read-out: ELISA CMV EC50
Method in brief: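 Hs-68 fibroblasts at 80–90% confluency infected with HCMV AD169 at MOI 0.01 PFU/cell for 2 h, washed, then cultured 8 days at 37 °C with test compound in DMEM/5% FBS. Late protein p28 detected by ELISA (mAb UL99, HRP/OPD, 450 nm); EC50 from % inhibition of replication.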

[2] = tested on: HSV-1 strain F or KOS; test: Inhibition of herpes simplex virus (HSV-1) replication in cell culture (BHK-21 cells, glycoprotein C ELISA); assay type: cell-based
Method in brief: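 BHK-21 clone 13 cells infected with HSV-1 F or KOS at MOI 0.05 PFU/cell for 1 h at 37°, washed, then treated with compound in α-MEM/2% FBS for 24 h. Late glycoprotein C quantified by ELISA (mAb C11, HRP/OPD, 450 nm); EC50 from % inhibition.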

[3] = Human betaherpesvirus 5, AD169, Hs68, Group 1 Table 3 entries
[4] = Human alphaherpesvirus 1, BHK-21, Group 1 Table 3 entries
[5] = Human betaherpesvirus 5, AD169, Hs68, Group 1 Table 2 entries
[6] = Human alphaherpesvirus 1, BHK-21, Group 1 Table 2 entries
[7] = Human betaherpesvirus 5, AD169, Hs68, Group 1 Table 1 entries
[8] = Human alphaherpesvirus 1, BHK-21, Group 1 Table 1 entries
[9] = Human betaherpesvirus 5, AD169, Hs68, Group 1 Table 5 entries
[10] = Human alphaherpesvirus 1, BHK-21, Group 1 Table 5 entries

Compound	EC50 [1, 5]	EC50 [2, 6]	EC50 [1, 7]	EC50 [2, 8]	further results
CN(C(=O)CN(Cc1ccccc1)C(=O)C1CCCCC1)c1ccc(-c2csc(N)n2)cc1 [Example 1]					EC50 [1, 3]: > 46000 nM; EC50 [2, 4]: 16 nM
Nc1nc(-c2ccc(NC(=O)CCNCc3ccccc3)cc2)cs1 [Example 1]	3200 nM	6000 nM			
Nc1nc(-c2ccc(NC(=O)CNCc3ccccc3)cc2)cs1 [Example 1]			25000 nM	2700 nM	
Nc1nc(-c2ccc(NC(=O)CCN(Cc3ccccc3)Cc3ccccc3)cc2)cs1 [Example 2]	550 nM	2200 nM			
CC(C)(C)OC(=O)N[C@@H](Cc1ccccc1)C(=O)Nc1ccc(-c2csc(N)n2)cc1 [Example 3]					EC50 [1, 9]: 140 nM; EC50 [2, 10]: 16 nM
Nc1nc(-c2ccc(NC(=O)CCN(Cc3ccccc3)C(=O)c3ccccc3)cc2)cs1 [Example 3]	1200 nM	2200 nM			
Nc1nc(-c2ccc(NC(=O)CNCCCc3ccccc3)cc2)cs1 [Example 3]			1800 nM	18000 nM	
CC(C)(C)OC(=O)N[C@H](Cc1ccccc1)C(=O)Nc1ccc(-c2csc(N)n2)cc1 [Example 4]					EC50 [1, 9]: 250 nM; EC50 [2, 10]: 570 nM
Nc1nc(-c2ccc(NC(=O)CCNCc3cccc(F)c3)cc2)cs1 [Example 4]	6600 nM	2200 nM			
O=C(CN(Cc1ccccc1)C(=O)C1CCCCC1)Nc1ccc(-c2cscn2)cc1 [Example 5]					EC50 [1, 3]: > 63000 nM; EC50 [2, 4]: 12 nM
CNc1nc(-c2ccc(NC(=O)CN(Cc3ccccc3)C(=O)c3ccccc3)cc2)cs1 [Example 6]					EC50 [1, 3]: 51000 nM; EC50 [2, 4]: 12 nM
Nc1nc(-c2ccc(NC(=O)[C@H](Cc3ccccc3)NCc3ccccc3)cc2)cs1 [Example 6]					EC50 [1, 9]: 140 nM; EC50 [2, 10]: 830 nM
CN[C@@H](Cc1ccccc1)C(=O)Nc1ccc(-c2csc(N)n2)cc1 [Example 8]					EC50 [1, 9]: 1100 nM; EC50 [2, 10]: 14000 nM
Nc1nc(-c2ccc(NC(=O)CCN(Cc3ccccc3)C(=O)C3CCCCC3)cc2)cs1 [Example 8]	8600 nM	1100 nM			
Nc1nc(-c2ccc(NC(=O)[C@@H](Cc3ccccc3)N(Cc3ccccc3)C(=O)C3CCCCC3)cc2)cs1 [Example 9]					EC50 [1, 9]: 4000 nM; EC50 [2, 10]: 290 nM
C[C@H](NCC(=O)Nc1ccc(-c2csc(N)n2)cc1)c1ccccc1 [Example 10]			2200 nM	2200 nM	
Nc1nc(-c2ccc(NC(=O)CCNC3Cc4ccccc4C3)cc2)cs1 [Example 10]	7500 nM	3900 nM			
CN(C)c1nc(-c2ccc(NC(=O)CN(Cc3ccccc3)C(=O)c3ccccc3)cc2)cs1 [Example 11]					EC50 [1, 3]: 3500 nM; EC50 [2, 4]: 24 nM
C[C@@H](NCC(=O)Nc1ccc(-c2csc(N)n2)cc1)c1ccccc1 [Example 11]			19000 nM	1300 nM	
Nc1nc(-c2ccc(NC(=O)CCN(C(=O)c3cccnc3)C3Cc4ccccc4C3)cc2)cs1 [Example 12]	6500 nM	7600 nM			
CC(C)(C)OC(=O)N(CCC(=O)Nc1ccc(-c2csc(N)n2)cc1)C1Cc2ccccc2C1 [Example 14]	200 nM	1800 nM			

Compound	EC50 [1, 5]	EC50 [2, 6]	EC50 [1, 7]	EC50 [2, 8]	further results
CC(C)(C)OC(=O)N(CCC(=O)Nc1ccc(-c2csc(N)n2)cc1)Cc1ccccc1 [Example 15]	11300 nM	640 nM			
CN(CC(=O)Nc1ccc(-c2csc(N)n2)cc1)Cc1ccccc1 [Example 15]			6200 nM	950 nM	
Nc1nc(-c2ccc(NC(=O)CCN(Cc3ccccc3)C(=O)OCc3ccccc3)cc2)cs1 [Example 16]	7000 nM	2600 nM			
Nc1nc(-c2ccc(NC(=O)CN(Cc3ccccc3)Cc3ccccc3)cc2)cs1 [Example 16]			3800 nM	450 nM	
Nc1nc(-c2ccc(NC(=O)CCN(Cc3ccccc3)CC3CCCCC3)cc2)cs1 [Example 17]	4700 nM	1800 nM			
CC(=O)Nc1nc(-c2ccc(NC(=O)CN(Cc3ccccc3)C(C)=O)cc2)cs1 [Example 18]					EC50 [1, 3]: 2800 nM; EC50 [2, 4]: > 30000 nM
C[C@@H](c1ccccc1)N(CCC(=O)Nc1ccc(-c2csc(N)n2)cc1)C(=O)OC(C)(C)C [Example 18]	2900 nM	1600 nM			
C[C@@H](c1ccccc1)N(CCC(=O)Nc1ccc(-c2csc(N)n2)cc1)Cc1ccccc1 [Example 19]	3100 nM	890 nM			
CC(C)c1nc(-c2ccc(NC(=O)CN(Cc3ccccc3)C(=O)c3ccccc3)cc2)cs1 [Example 20]					EC50 [1, 3]: 3300 nM; EC50 [2, 4]: > 25000 nM
C[C@H](NCCC(=O)Nc1ccc(-c2csc(N)n2)cc1)c1ccccc1 [Example 20]	800 nM	1300 nM			
CC(C)(C)OC(=O)N(CCC(=O)Nc1ccc(-c2csc(N)n2)cc1)CC1CCCCC1 [Example 21]	4200 nM	450 nM			
CN(CC(=O)Nc1ccc(-c2csc(N)n2)cc1)C(=O)c1ccncc1 [Example 22]			110000 nM	1800 nM	
Nc1nc(-c2ccc(NC(=O)CCNCC3CCCCC3)cc2)cs1 [Example 22]	4800 nM	6000 nM			
CCCC(CCC)NCCC(=O)Nc1ccc(-c2csc(N)n2)cc1 [Example 23]	4000 nM	6000 nM			
Nc1nc(-c2ccc(NC(=O)CN(Cc3ccccc3)C(=O)c3ccccc3)cc2)cs1 [Example 23]			12000 nM	7 nM	
Nc1nc(-c2ccc(NC(=O)CCN(CC3CCCCC3)C(=O)c3cccnc3)cc2)cs1 [Example 24]	450 nM	1700 nM			
Nc1nc(-c2ccc(NC(=O)CN(Cc3ccccc3)C(=O)c3ccc(F)cc3)cc2)cs1 [Example 24]			14000 nM	2 nM	
C[C@@H](NCCC(=O)Nc1ccc(-c2csc(N)n2)cc1)c1ccccc1 [Example 25]	1000 nM	2600 nM			
Nc1nc(-c2ccc(NC(=O)CN(Cc3ccccc3)C(=O)Cc3ccccc3)cc2)cs1 [Example 26]			1800 nM	50 nM	
Nc1nc(-c2ccc(NC(=O)CN(Cc3ccccc3)C(=O)c3ccccn3)cc2)cs1 [Example 27]			7000 nM	280 nM	
Nc1nc(-c2ccc(NC(=O)CN(Cc3ccccc3)C(=O)c3cccnc3)cc2)cs1 [Example 28]			4600 nM	130 nM	

Compound	EC50 [1, 5]	EC50 [2, 6]	EC50 [1, 7]	EC50 [2, 8]	further results
Nc1nc(-c2ccc(NC(=O)CN(Cc3ccccc3)C(=O)c3ccncc3)cc2)cs1 [Example 29]			12000 nM	35 nM	
Nc1nc(-c2ccc(NC(=O)CN(Cc3ccccc3)C(=O)c3cc[n+]([O-])cc3)cc2)cs1 [Example 30]			77000 nM	430 nM	
Nc1nc(-c2ccc(NC(=O)CN(Cc3ccccc3)C(=O)Cc3ccccn3)cc2)cs1 [Example 31]			1300 nM	400 nM	
Nc1nc(-c2ccc(NC(=O)CN(Cc3ccccc3)C(=O)c3cccs3)cc2)cs1 [Example 32]			5400 nM	40 nM	
Nc1nc(-c2ccc(NC(=O)CN(Cc3ccccc3)C(=O)c3cnccn3)cc2)cs1 [Example 33]			28200 nM	170 nM	
Nc1nc(-c2ccc(NC(=O)CN(Cc3ccccc3)C(=O)C3CCCCC3)cc2)cs1 [Example 34]			1000 nM	4 nM	
Nc1nc(-c2ccc(NC(=O)CN(Cc3ccccc3)C(=O)C3CCCC3)cc2)cs1 [Example 36]			2800 nM	5 nM	
Nc1nc(-c2ccc(NC(=O)CN(Cc3ccccc3)C(=O)CC3CCCCC3)cc2)cs1 [Example 38]			4000 nM	16 nM	
Nc1nc(-c2ccc(NC(=O)CN(Cc3ccccc3)C(=O)CC3CCCC3)cc2)cs1 [Example 39]			6100 nM	9 nM	
CC(C)(C)C(=O)N(CC(=O)Nc1ccc(-c2csc(N)n2)cc1)Cc1ccccc1 [Example 41]			14000 nM	36 nM	
CC(C)(C)CC(=O)N(CC(=O)Nc1ccc(-c2csc(N)n2)cc1)Cc1ccccc1 [Example 42]			6000 nM	2 nM	
CC(C)C(=O)N(CC(=O)Nc1ccc(-c2csc(N)n2)cc1)Cc1ccccc1 [Example 43]			25000 nM	130 nM	
CC(=O)N(CC(=O)Nc1ccc(-c2csc(N)n2)cc1)Cc1ccccc1 [Example 44]			16000 nM	750 nM	
Nc1nc(-c2ccc(NC(=O)CN(Cc3ccccn3)C(=O)C3CCCCC3)cc2)cs1 [Example 47]			19000 nM	13 nM	
Nc1nc(-c2ccc(NC(=O)CN(Cc3cccnc3)C(=O)C3CCCCC3)cc2)cs1 [Example 48]			5000 nM	40 nM	
Nc1nc(-c2ccc(NC(=O)CN(Cc3ccncc3)C(=O)C3CCCCC3)cc2)cs1 [Example 49, N-{2-{{4-(2-amino-4-thiazolyl)phenyl}amino}-2-oxoethyl}-N-(4-pyridinylmethyl)cyclohexanecarboxamide]			25000 nM	12 nM	
Nc1nc(-c2ccc(NC(=O)CN(CCc3ccccn3)C(=O)C3CCCCC3)cc2)cs1 [Example 50]			1600 nM	68 nM	
Nc1nc(-c2ccc(NC(=O)CN(Cc3cccs3)C(=O)C3CCCCC3)cc2)cs1 [Example 51]			6000 nM	2 nM	
C[C@H](c1ccccc1)N(CC(=O)Nc1ccc(-c2csc(N)n2)cc1)C(=O)C1CCCCC1 [Example 52]			1300 nM	13 nM	
C[C@@H](c1ccccc1)N(CC(=O)Nc1ccc(-c2csc(N)n2)cc1)C(=O)C1CCCCC1 [Example 53]			3200 nM	3 nM	
